# Assay results: article PMC9588787, “Exploring the In situ pairing of human galectins toward synthetic O-mannosylated core M1 glycopeptides of α-dystroglycan” (Scientific Reports, 2022)
# Entries after “also recorded” stand apart in the source; their conditions may differ. Where no end group is shown, it is not given here.
# What was measured:
# Gal-4 = assay: Glycopeptide microarray lectin binding assay, Gal-4; set-up: species or system human; settings: compounds immobilised at 20 and/or 200 μM; Gal-4 0.10-32.0 µg/mL, PBS pH 7.4, no reducing agent
# Protocol: (§1) Following our reported optimized protocol, the binding profile of lectins were investigated using evanescent-field fluorescence-assisted microarray technology to directly monitor the interaction without the wash and dry-up process and rapid exchange of protein solution to evaluate concentration dependence, 0.10–32.0 µg/mL protein. The AO/PC-copolymer microarray slides were deprotected using 2N HCl treatment overnight at rt, rinsed with MilliQ H2O, and dried by centrifugation. […]
# (§2) A silicon rubber sheet with six chambers was attached to the printed slide. […] After 1 h of incubation with the lectin solution at rt in a humidified chamber, the slide was rinsed with washing buffer (reaction buffer with containing 0.05% (v/v) Tween-20) and fluorescence intensity was measured with GlycoStation System. To determine whether additional interactions will be detected at higher lectin concentrations, the reaction buffer solution was carefully removed and replaced with the next lectin test concentration, incubated for 5 min at rt, washed with reaction buffer and then fluorescence intensity was obtained. […]
# (§3) Images of slides were captured in the presence of reaction buffer. The fluorescexcelence intensities obtained were analyzed using ArrayVision 8.0 (GE Healthcare). […]
# Gal-1 [1] = assay: Glycopeptide microarray lectin binding assay, Gal-1; set-up: species or system human; settings: compounds immobilised at 20 and/or 200 μM, quadruplets; labelled Gal-1 0.10-32.0 µg/mL, PBS pH 7.4, no reducing agent, ambient air (partially oxidizing)
# Protocol: Following our reported optimized protocol, the binding profile of lectins were investigated using evanescent-field fluorescence-assisted microarray technology to directly monitor the interaction without the wash and dry-up process and rapid exchange of protein solution to evaluate concentration dependence, 0.10–32.0 µg/mL protein. The AO/PC-copolymer microarray slides were deprotected using 2N HCl treatment overnight at rt, rinsed with MilliQ H2O, and dried by centrifugation. Then, test compounds were robotically printed using Arduino-based CNC machine handcrafted robot in quadruplets at two concentrations (20 and 200 µM) in 25 mM AcOH-Pyr (pH 5.0), 0.0025% (w/v) Triton X-100 under constant condition (temperature: 20–25 °C and humidity: 35–45 RH). A 25 µg/mL Cyanin3-keto-BSA (Cy3-keto-BSA) was also printed in the slide as grid. Subsequently, the slide was incubated at 80 °C for 1 h to complete the oxime bond formation. Washed once with Milli-Q H2O and dried by centrifugation at 2,000 rpm for 2 min.
# A silicon rubber sheet with six chambers was attached to the printed slide. Next, slide was pretreated with reaction buffer {Phosphate-Buffered Saline solution (PBS, 1X) [10 mM Na2HPO4, 1.8 mM KH2PO4, 2.7 mM KCl, 137 mM NaCl] pH7.4 containing 0.05% (v/v) Tween-20} for 15 min and dried by centrifugation. The PBS (with or without 10 mM DTT) solutions of galectin were prepared and maintained at a cold ice bath before use. Thereafter, a cover glass was set on each chamber and 12 µL of 0.10 µg/mL lectin solution in reaction buffer was added through the gap of the slide and cover. After 1 h of incubation with the lectin solution at rt in a humidified chamber, the slide was rinsed with washing buffer (reaction buffer with containing 0.05% (v/v) Tween-20) and fluorescence intensity was measured with GlycoStation System. To determine whether additional interactions will be detected at higher lectin concentrations, the reaction buffer solution was carefully removed and replaced with the next lectin test concentration, incubated for 5 min at rt, washed with reaction buffer and then fluorescence intensity was obtained. This step was repeated until all the chosen test concentrations were completed (0.32-, 1.00-, 3.20-, 10.0-, and 32.0 µg/mL).
# Images of slides were captured in the presence of reaction buffer. The fluorescexcelence intensities obtained were analyzed using ArrayVision 8.0 (GE Healthcare). For each spot, background correction was applied to get the net intensity, and the average relative fluorescence unit (RFU) was plotted using Microsoft Excel for Microsoft 365. The lectin specificity was identified from high and low RFU values, the error bars being the standard deviation.
# Gal-9 = assay: Glycopeptide microarray lectin binding assay, Gal-9; set-up: species or system human; settings: compounds immobilised at 20 and/or 200 μM; Gal-9 0.10-32.0 µg/mL, PBS pH 7.4, no reducing agent
# Protocol: as §1, §2, §3
# [2] = tested on: laminin-111, -121, -211, and -221 with unlabeled Gal-1; assay: Laminin–Gal-1 binding assay (trans-bridging on microarray); set-up: species or system human; settings: 200 μM immobilised compounds; 0.10-32.0 µg/mL Cy3-laminin–unlabeled Gal-1, 32.0 µg/mL extended 30 min
# Protocol: A 12 µL of premixed Cy3-labeled human recombinant laminin (BroadPharm and Biolamina, respectively) and unlabeled-Gal-1 with final concentration of 0.10 µg/mL was added to the printed test compounds. After 1 h of incubation with the laminin-galectin solution at rt in a humidified chamber, the slide was rinsed with washing buffer and fluorescence intensity was measured with GlycoStation System. To determine whether additional interactions will be detected at higher laminin-Gal-1 concentrations, the reaction buffer solution was carefully removed and replaced with the next test concentration, incubated for 5 min at rt, washed with reaction buffer and then fluorescence intensity was obtained. This step was repeated until all the chosen test concentrations were completed (0.32-, 1.00-, 3.20-, 10.0-, and 32.0 µg/mL). For weak interaction, incubation with 32.0 µg/mL of laminin-Gal-1 solution was extended for 30 min. Slide images were captured and analyzed as described above.
# Gal-1, Gal-4, and Gal-9 = assay: Microarray inhibition experiment (methyl-Lac, cellobiose, maltose, acetylated peptide 4); format: binding, human; settings: for Gal-1 interaction with immobilised compound upon addition of methyl-Lac: Gal-1, Fig. 5b, 2.00 µM to 200 mM methyl-Lac; for Effect of soluble inhibitor on galectin binding to immobilised glycopeptides: 10 µg/mL galectin, sugars 2.00 µM to 200 mM, acetylated peptide 4 100 µM to 5.00 mM
# Protocol: After 30 min of incubation with the galectin-inhibitor solution at rt in a humidified chamber, the slide was rinsed with washing buffer and fluorescence intensity was measured with GlycoStation System. […] Slide images were captured and analyzed as described above.
# Gal-3 [3] = assay: Glycopeptide microarray lectin binding assay, Gal-3; set-up: species or system human; settings: compounds immobilised at 20 and/or 200 μM; Gal-3 0.10-32.0 µg/mL, PBS pH 7.4, no reducing agent
# Protocol: as §1, §2, §3
# Gal-1, -3, -4, and -9 = assay: Glycopeptide microarray, statements for the galectin test panel as a whole; format: binding, human; settings: compounds immobilised at 20 and/or 200 μM; galectins 0.10-32.0 µg/mL, PBS pH 7.4, no reducing agent
# Protocol: as §1, §2, §3
# Gal-1 [4] = assay: 1H-15N HSQC NMR chemical shift perturbation of 15N-labeled Gal-1; format: binding, human; settings: tested concentrations, 0.05 up to 64 equivalents of ligand; 100 µM Gal-1, pH 6.9, 10 mM DTT
# Protocol: ^15N Gal-1 was expressed in Escherichia coli cells BL21(DE3) from pET-GST/TEV-LGVLFQGP-hLGALS1 vector (VectorBuilder, Japan). The component cells were transformed with an expression vector utilizing the heat shock method. After one night of incubation on LB Agar plate (containing 100 μg/mL ampicillin), a colony harboring the expression construct was selected and then inoculated unto 5 mL Luria Broth (LB) with antibiotic overnight at 37 °C with shaking. The bacterial pellet was then resuspended to a fresh 500 mL M9-labeled (^15N-NH4Cl as nitrogen source) medium containing ampicillin. After that, culture was grown at 37 °C for at least 4 h until OD600 = 0.6–1.2. The cells were then induced with 0.5 mM isopropyl-β-D-1-thiogalactopyranoside (IPTG) overnight at 25 °C. Bacteria expressing ^15N Gal-1 was lysed with a sonicator (for 5 min, 25% duty cycle. 5 output control) in buffer containing 50 mM PBS, pH 7.4, 150 mM NaCl, 2 mM DTT. […] Lectin-binding activity was analyzed by 15N-HQSC with methyl-Lac. […]
# The ^15N-labeled Gal-1 was prepared at 100 µM concentration in 20 mM potassium phosphate buffer at pH 6.9, 50 µM EDTA and 10 mM DTT, made up using H2O/D2O (95:5%). […] Raw data were converted using TopSpin 4.1.3 and were analyzed using NMRFAM-Sparky[71]. […] The perturbation pattern of the Gal-1 (PDB ID: 1GZW) was analyzed and visualized by PyMOL 2.5.0 (http://www.pymol.org).
# laminins = settings: basal lamina; read-out: Kd of Gal-1 binding to poly-LacNAc structures of laminins; cited from earlier work
# Text: In the basal lamina, Gal-1 binds to the poly-LacNAc structures of laminins (Kd≈10^−6 M), to maintain glycan recognizing function of Gal-1 in the ECM[61]. During muscle repair, Gal-1 binds directly to laminin and α7β1 integrin modulating the late myoblast fusion. In addition, Gal-1 can dissociate from laminin and cross-link olfactory neurons, forming ne ...
# Gal-3 [5] = settings: read-out: Kd of interaction with Gal-3; cited from earlier work
# Text: The glycan-CBP interactions are influenced by not only the type of glycan but also the spatial orientation, carrier scaffold, accessibility, density, and spacing of sugar moieties along the glycoconjugate, to obtain optimum fit within the binding pocket of the receptors[37],[40],[44].
compound,measurement,setting,value
"5-oxo-hexanoyl-TRGAIIQTPTLGPIQPTRV -NH2 [compound 4, unglycosylated α-DG peptide backbone (…) with ketone linker]","Gal-4 binding, microarray signal intensity (RFU)",Gal-4,interact
same,"Gal-1 binding, microarray signal intensity (RFU)",Gal-1 [1],binding was observed; also recorded: interact
same,"Gal-9 binding, microarray signal intensity (RFU)",Gal-9,interact
same,"Gal-1 trans-bridging of Cy3-laminin to immobilised compound, signal intensity",[2],could anchor laminins
"5-oxo-hexanoyl-TRGAIIQTPTLGPIQPTRV -NH2 [compound 5, mono-core M1 α-DG glycopeptide]","Gal-1 binding, microarray signal intensity (RFU)",Gal-1 [1],did not show significant interaction
same,"Gal-1 trans-bridging of Cy3-laminin to immobilised compound, signal intensity",[2],remarkable signal intensities
same,Gal-1 interaction with immobilised compound upon addition of methyl-Lac,"Gal-1, Gal-4, and Gal-9",enhanced interaction
"5-oxo-hexanoyl-TRGAIIQTPTLGPIQPTRV -NH2 [compound 6, mono-core M1 α-DG glycopeptide]","Gal-1 binding, microarray signal intensity (RFU)",Gal-1 [1],did not show significant interaction
same,"Gal-1 trans-bridging of Cy3-laminin to immobilised compound, signal intensity",[2],remarkable signal intensities
same,Gal-1 interaction with immobilised compound upon addition of methyl-Lac,"Gal-1, Gal-4, and Gal-9",enhanced interaction
"5-oxo-hexanoyl-TRGAIIQTPTLGPIQPTRV -NH2 [compound 11, tris-core M1 α-DG glycopeptide]","Gal-1 binding, microarray signal intensity (RFU)",Gal-1 [1],notable decrease in binding interaction
"5-oxo-hexanoyl-TRGAIIQTPTLGPIQPTRV -NH2 [compound 15, bis-LacNAc core M1 α-DG glycopeptide, consecutive glycosylation sites]","Gal-3 binding, microarray signal intensity (RFU)",Gal-3 [3],stronger affinity
"5-oxo-hexanoyl-TRGAIIQTPTLGPIQPTRV -NH2 [compound 18, tris-LacNAc terminated α-DG glycopeptide]","Binding of the tested galectins (panel statement), microarray signal intensity","Gal-1, -3, -4, and -9",lesser interaction
same,"Gal-3 binding, microarray signal intensity (RFU)",Gal-3 [3],did not result in higher intensity
"5-oxo-hexanoyl-TRGAIIQTPTLGPIQPTRV -NH2 [compound 26, α-DG glycopeptide with heterogeneous glycans: LacNAc core M1 and core M1]","Gal-1 binding, microarray signal intensity (RFU)",Gal-1 [1],bound
same,"Binding of the tested galectins (panel statement), microarray signal intensity","Gal-1, -3, -4, and -9",high interaction
same,Galectin interaction with immobilised compound in the presence of methyl-Lac,"Gal-1, Gal-4, and Gal-9; 200 μM immobilised compounds, 10 µg/mL galectin with 2.00 µM to 200 mM methyl-Lac",significantly reduced interaction
"5-oxo-hexanoyl-TRGAIIQTPTLGPIQPTRV -NH2 [compound 28, α-DG glycopeptide with heterogeneous glycans: sialyl-LacNAc core M1 and LacNAc core M1]","Gal-4 binding, microarray signal intensity (RFU)",Gal-4,significant reduction in the affinity
same,"Gal-1 binding, microarray signal intensity (RFU)",Gal-1 [1],bound; also recorded: diminished Gal-1 binding
same,"Gal-1 trans-bridging of Cy3-laminin to immobilised compound, signal intensity",[2],decrease in the trans-bridging activity
32: acetylated N-terminus unglycosylated α-DG peptide corresponding to 4 (Ac-TRGAIIQTPTLGPIQPTRV) [compound 32],Chemical shift perturbation of 15N Gal-1 over the titration,Gal-1 [4],failed to induce any significant deviation in the chemical shift
same,Effect of soluble inhibitor on galectin binding to immobilised glycopeptides,"Gal-1, Gal-4, and Gal-9",minimal effect on the binding
"O=C[C@H](O)[C@@H](O)[C@H](O[C@@H]1O[C@H](CO)[C@@H](O)[C@H](O)[C@H]1O)[C@H](O)CO [cellobiose, reference compound]",Effect of soluble inhibitor on galectin binding to immobilised glycopeptides,"Gal-1, Gal-4, and Gal-9",minimal effect on the binding
"CO[C@@H]1O[C@H](CO)[C@@H](O[C@@H]2O[C@H](CO)[C@H](O)[C@H](O)[C@H]2O)[C@H](O)[C@H]1O [methyl-Lac, methyl-β-lactoside, reference compound]",Chemical shift perturbation of 15N Gal-1 over the titration,Gal-1 [4],shifted the ^1H-^15N HSQC signals corresponding to the residues on S3–L6 regions
same,Effect of soluble inhibitor on galectin binding to immobilised glycopeptides,"Gal-1, Gal-4, and Gal-9",significantly reduced interaction
Gal-1: prototype homodimeric human galectin,Kd,laminins,~1 µM
"Galβ1,3GalNAcα1-O-Ser/Thr [TF antigen]",Kd,Gal-3 [5],245 µM
